Measured values published in patent US6590140B1, “Metal-regulated transporters and uses therefor” (Trustees of Dartmouth College, priority 1996, dated 2003).
Entries after “also recorded” stand apart in the source; their conditions may differ.

Columns and labels:
IRT1 = molecular target: T1, IRT1 (Arabidopsis thaliana, UniProt Q38856); assay: 55Fe uptake in fet3 fet4 yeast expressing IRT1; type: cell-based; settings: for effect on the rate of iron uptake by IRT1: 10 μM metal, 10 times the radiolabeled iron, Fe(II) with 1 mM ascorbate, 10 min
T1 construct: contain a single 1017 bp open reading frame capable of encoding a polypeptide of 339 amino acids; expressed in transfected cells; host or cells: S. cerevisiae fet3 fet4 strain DEY1453 carrying pIRT-1 (pFL61 library vector, phosphoglycerate kinase promoter)
T1 sequence (Q38856 9-347 limits assumed): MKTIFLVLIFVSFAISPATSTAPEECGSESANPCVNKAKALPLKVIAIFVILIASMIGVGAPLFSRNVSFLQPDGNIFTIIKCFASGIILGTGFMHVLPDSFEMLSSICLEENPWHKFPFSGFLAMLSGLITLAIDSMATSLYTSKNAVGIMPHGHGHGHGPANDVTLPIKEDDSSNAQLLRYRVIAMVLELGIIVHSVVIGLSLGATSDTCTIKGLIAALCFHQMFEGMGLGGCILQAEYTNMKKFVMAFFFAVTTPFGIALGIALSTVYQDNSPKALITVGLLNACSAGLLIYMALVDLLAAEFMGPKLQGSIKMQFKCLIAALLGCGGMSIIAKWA
Protocol: Iron uptake assays using ^55FeCl3 (Amersham, Arlington Heights, Ill.) were performed as described (Eide, D. et al. (1992) J. Biol. Chem. 267: 20774-20781) except that MGN (10 mM Mes/2% glucose/1 mM nitrilotriacetic acid, pH 6.1) was used for the assay buffer. Where noted, 1 mM sodium ascorbate was added to reduce Fe(III) to Fe(II). Stock solutions of the chloride salt of each metal (except for iron) were prepared in water at a concentration of 100 mM and diluted into MGN to a final concentration of 10 μM before addition of the cells. The ^56FeCl3 stock was 50 mM prepared in 0.1 M HCl. The statistical significance of differences in values relative to controls was determined using STATVIEW software (Abacus Concepts, Berkeley, Calif.). Data was subjected to one-way analysis of variance (ANOVA) followed by a Scheffe's test.
To determine if IRT1 encodes an iron transporter, ^55Fe uptake rates were examined in a fet3 fet4 strain expressing IRT1. Little or no uptake was detected at 0° C. for either IRT1-expressing or untransformed control cells (FIG. 2A). The fet3 fet4 mutant strain DEY1453 (circles) and DEY1453 transformed with pIRT-1 (squares) were grown to exponential phase in SD glucose and assayed for iron uptake with ^55Fe. (A) Time- and temperature-dependence of iron accumulation assayed in MGN with 1 mM ascorbate and 5 μM ^55FeCl3 assayed at 30° C. (open symbols) or 0° C. (solid symbols). The dashed line marked with open triangles represents the IRT1-dependent accumulation, i.e., the accumulation of iron by the untransformed strain at 30° C. subtracted from the accumulation of the pIRT-1-bearing strain at 30° C. […] The IRT1-dependent rate was ≈3-fold higher than the control uptake rate. No increased uptake was apparent in strains bearing either of two randomly selected clones from the library, indicating the dependence of these uptake effects on expression of IRT1. The iron uptake activity dependent on IRT1 expression was also concentration-dependent and saturable (FIG. 2B). The same strains as in A were assayed for iron uptake rates for 10 min over a range of concentrations. The dashed lines marked with open triangles represents the IRT1-dependent uptake rate, i.e., background uptake rate of the untransformed strain subtracted from the corresponding rate of the pIRT-1-bearing strains. (Inset) Eadie-Hofstee plot of the IRT1-dependent uptake data. Each point represents the mean of three experiments each performed in duplicate. The standard deviation within each experiment was less that 20% of the corresponding mean.
The experiments described above were conducted with iron supplied as Fe(II), i.e., in the presence of ascorbate, an agent capable of reducing Fe(III) to Fe(II). To determine if Fe(II) is the preferred substrate over Fe(III), assays were carried out in the absence of ascorbate where iron is supplied to the cells as Fe(III). […] The fet3 fet4 mutant strain DEY1453 and DEY1453 transformed with pIRT-1 were grown to exponential phase is SD glucose and assayed for iron uptake with 1 μM FeCl3 in MGN for 10 min. The values shown are the IRT1-dependent rates, i.e., the untransformed strain control values were subtracted from the DEY1453 pIRT-1 values and represent the means of four replicates. The asterisks indicate significant of differences from the control values (P<0.05). Assays were performed in the absence [Fe(III)] or presence [Fe(II)] of 1 mM ascorbate. […] Although yeast are capable of reducing Fe(III) to Fe(II) through the action of plasma membrane Fe(III) reductases, this rate of cell-mediated reduction is slower than reduction by ascorbate and therefore may be rate-limiting for IRT1-dependent uptake. To assess if metals other than iron are potential substrates for IRT1, several transition metals were tested for their ability to inhibit accumulation of iron in IRT1-expressing cells (FIG. 3B). Assays were conducted in the absence (−) or presence of 10 μM metal. […]

[1] = molecular target: T2, low affinity zinc uptake system (Zrt2p) (Saccharomyces cerevisiae, UniProt Q12436); type: cell-based
T2 construct: endogenous in cells; host or cells: S. cerevisiae ZHY1 (zrt1::LEU2) and zinc-replete DY1457; some values come from ZHY1 carrying pMC4 (multicopy genomic ZRT2) or pOE2 (ZRT2 ORF under GAL1)
Protocol: (§1) Zinc uptake assays were performed as described previously for iron uptake (Eide et al. J. Biol. Chem. 267:20774-20781) except that ^65ZnCl2 (Amersham Corp., Arlington Heights, Ill.) and LZM-EDTA were substituted for ^59FeCl3 and LIM-EDTA. Cells were incubated at 30° C. with ^65Zn for five minutes, filtered, and washed with 10 ml ice-cold SSW. Cell-associated radioactivity was measured by liquid scintillation. Kinetic values were derived using KinetAsyst software (IntelliKinetics, Princeton, N.J.). Zinc accumulation was measured in cells grown in LZM medium supplemented with […] ^65Zn plus nonradioactive zinc to the indicated final concentration. Aliquots (0.5 ml) were filtered, washed with 10 ml ice-cold SSW, and counted by liquid scintillation. b-galactosidase activity was assayed as described by Guarente (Guarante, L. (1983) Methods Enzymol101:181-191).
(§2) Zinc uptake assays were performed as described previously for iron uptake (Eide et al. (1992) J. Biol. Chem. 267:20774-20781) except that ^65ZnCl2 (Amersham) and LZM-EDTA were substituted for ^59FeCI3 and LIM-EDTA, respectively. Cells were incubated for 5 minutes in LZM-EDTA plus the indicated concentration of ^65Zn, collected on glass fiber filters (Schleicher and Schuell), washed with 10 ml ice-cold SSW (1 mM EDTA, 20 mM trisodium citrate, 1 mM KH2PO4, 1 mM CaCl2, 5 mM MgSO4, 1 mM NaCl pH 4.2), and cell-associated radioactivity was measured by liquid scintillation counting. Cells were starved for glucose by incubating them in LZM-EDTA prepared without glucose for one hour at 30° C. prior to assay. Michaelis-Menten kinetic values were determined using […] software (Intellikinetics, Princeton, N.J.). Stock solutions of the chloride salts of Co, Cu, Mg, Mn, and Ni were prepared in distilled water at a concentration of 100 mM. The nonradioactive ZnCl2 stock was prepared at 100 mM in 0.02 N HCl and the FeCl3 stock was prepared at 50 mM in 0.1 N HCl. The statistical significance of the differences of values relative to controls was determined with one-way analysis of variance (ANOVA) followed by a Dunnett multiple comparison test. β-galactosidase activity was assayed in cells harvested at an OD600 of 0.5-2.0 as described by Guarente (Guarente, L. (1983) Methods Enzymol. 101:181-191) and activity is expressed as the change in absorbance at 420 nm×1000 divided by (min×ml of culture used×OD600 of the culture). Cell-associated zinc was measured in parallel cultures supplemented with tracer amounts of ^65Zn (10 μM) and nonradioactive zinc to the indicated final concentration. Aliquots (0.5 ml) were filtered, washed with 10 ml ice-cold SSW, and radioactivity measured by liquid scintillation.
(§3) To determine if ZRT1 plays a role in zinc uptake, the biochemical properties of this process in wild type cells were first characterized. […] Wild type (FIG. 10, DY1457, squares) and zrt1 mutant (FIG. 10, ZHY1, circles) cells were grown to exponential phase in zinc-limited (open symbols, FIG. 10) and zinc-replete (FIG. 10, closed symbols) media and assayed for zinc uptake rate over a range ZnSO4 concentrations. Zinc-limited media was LZM+10 μM zinc for the wild type and LZM+500 μM zinc for the mutant. Zinc-replete conditions were LZM+1000 μM for both strains. ZHY1(pOE1) cells (FIG. 10, triangles) were grown in zinc-replete SDgal medium.
(§4) Mutant zrt1 (ZHY1) cells were grown in LZM supplemented with 1 mM ZnCl2. Cells were incubated with 10 μM ^65Zn for the indicated times at either […]

zrt1 mutant (ZHY1) cells = type: cell-based, Saccharomyces cerevisiae; settings: 500 μM metal added to iron-limiting medium LIM (1 mM EDTA)
Protocol: Strains used were DY1457 (MATα ade6 can1 his3 leu2 trp1 ura3) and ZHY1 (MaTα ade6 can1 his3 leu2 trp1 ura3 zrt1:: LEU2). Yeast were grown in standard culture media (SD, YPD) (Eide, D., Davis-Kaplan S., Jordan, I., Sipe, D., and Kaplan, J. (199: 2) J. Biol. Chem. 267, 20774-20781) supplemented with necessary auxotrophic requirements and either 2% glucose or 2% galactose. A zinc-limiting medium (LZM) was prepared in the same manner as LIM (Eide and Guarenete (1992) J. Gen. Microbiol. 138:347-354) except that […]. Cell number in liquid cultures was determined by measuring the optical density of cell suspensions at 600 nm (A600) and converting to cell number with a standard curve.
Strains used were DY1457 (MATα ade6 can1 his3 leu2 trp1 ura3), ZHY1 (AMTα ade6 can1 his3 leu2 trp1 ura3 zrt1::LEU2), ZHY2 (MATα ade6 can1 his3 leu2 trp1 ura3 zrt2::HIS3), and ZHY3 (MATα ade6 can1 his3 leu2 trp1 ura3 zrt1::LEU2 zrt2::HIS3). Yeast were grown in YP or SD media (Sherman et al. (1986) Methods in Yeast Genetics, Cold Spring Harbor Laboratory, Cold Spring Harbor, N.Y.) supplemented with necessary auxotrophic requirements and either 2% glucose or 2% galactose. Zinc-limiting YP and SD agar plates contained either bathophenanthroline disulfonate (BPS, 200 μM) or EDTA (1 mM), respectively. A liquid zinc-limiting medium (low zinc medium, LZM) was prepared in the same manner as low iron medium (LIM) (Eide and Guarente (1992) J. Gen. Microbiol. 138:347-354) except that the […]. LZM is similar in composition to SD medium with two modifications essential to controlling zinc availability. First, 1 mM EDTA is added to provide buffering for the concentration of free metal ions. Second, the medium is pH-buffered at 4.2 with 20 mM citrate to prevent pH changes that could alter the metal binding ability of EDTA. LZM was also prepared without EDTA ([…]) which is less zinc-limiting because the predominant chelator in this medium, citrate, binds zinc with less affinity than does EDTA. The concentrations of free (i.e. unchelated) zinc were calculated using MAXCHELATOR software (Chris Patton, Stanford University). Cell number in liquid cultures was determined by measuring the absorbance of cell suspensions at 600 nm (OD600) and converting to cell number with a standard curve.
To examine the function of ZRT1, a disruption mutation, zrt1::LEU2, was constructed by inserting the LEU2 gene into the center of ZRT1 (FIG. 6). This zrt1 disruption allele was then introduced into a haploid yeast strain. […] Because of the high EDTA concentration in LIM (1 mM), this medium is expected to have low available levels of other metals that are bound tightly by this chelator. Supplements of other metals were tested for improved growth of the zrt1 mutant in LIM. […] To study this effect further, a low zinc medium, LZM, was developed in which cell growth could be limited by zinc deficiency and the growth response of the wild type and zrt1 mutant strains to increasing levels of supplemented zinc was examined. Wild type (DY1457, squares) and zrt1 mutant (ZHY1, circles) cells were inoculated into LZM supplemented with the indicated amount of ZnSO4 and grown for 16 hours prior to cell number determination. […] Mutant zrt1 cells attained this same maximum number of cell divisions only with zinc supplements of 750 μM or more, i.e. a 75-fold increase in the zinc requirement of the zrt1 mutant compared to the wild type.
To further assess the role of the low affinity system as a source of zinc, growth of wild type and zrt2 cells in a zinc-limiting medium, LZM, supplemented with increasing amounts of zinc was examined. The same strains as in FIG. 15 were grown for six hours in SD glucose medium, harvested, washed in LZM, and reinoculated into either LZM (FIG. 15A) or LZM-EDTA (FIG. 15B) supplemented with the indicated concentrations of ZnCl2 ([Zn]T). […]

[2] = molecular target: T3, high affinity zinc uptake system (Zrt1p) (Saccharomyces cerevisiae, UniProt P32804); assay: 65Zn uptake assay in yeast, high affinity zinc uptake system; type: cell-based
T3 construct: endogenous in cells; host or cells: S. cerevisiae DY1457 (wild type, zinc-limited) and ZHY2 (zrt2); one kinetic value comes from ZHY1 carrying pOE1 (ZRT1 ORF under the GAL1 promoter)
Protocol: as §1, §2, §3, §4

[3] = 1 mM ascorbate, control experiments

T2 sequence (Q12436 whole entry): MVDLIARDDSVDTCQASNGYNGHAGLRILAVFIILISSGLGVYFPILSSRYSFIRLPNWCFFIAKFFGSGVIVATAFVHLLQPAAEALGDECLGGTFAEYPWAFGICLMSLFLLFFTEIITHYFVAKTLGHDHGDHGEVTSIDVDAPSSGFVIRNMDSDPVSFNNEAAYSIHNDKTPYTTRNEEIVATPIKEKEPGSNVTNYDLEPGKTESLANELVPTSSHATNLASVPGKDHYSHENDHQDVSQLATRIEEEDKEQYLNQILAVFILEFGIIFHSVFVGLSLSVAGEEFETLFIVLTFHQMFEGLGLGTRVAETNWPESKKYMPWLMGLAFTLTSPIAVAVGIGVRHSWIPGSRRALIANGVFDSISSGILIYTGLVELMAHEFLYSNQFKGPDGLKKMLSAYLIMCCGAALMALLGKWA
T3 sequence (P32804 whole entry): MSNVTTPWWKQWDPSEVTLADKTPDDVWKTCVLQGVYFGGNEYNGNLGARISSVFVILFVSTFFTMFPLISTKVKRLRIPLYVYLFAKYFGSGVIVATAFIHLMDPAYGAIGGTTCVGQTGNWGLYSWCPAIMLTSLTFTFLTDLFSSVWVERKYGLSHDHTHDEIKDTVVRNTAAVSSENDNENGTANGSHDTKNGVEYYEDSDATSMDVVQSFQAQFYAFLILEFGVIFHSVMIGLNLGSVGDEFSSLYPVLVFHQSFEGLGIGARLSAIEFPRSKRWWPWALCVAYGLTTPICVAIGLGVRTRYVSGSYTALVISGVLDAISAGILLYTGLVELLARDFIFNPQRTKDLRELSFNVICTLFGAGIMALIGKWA

`[Cl][Cd][Cl]` [Cd] was tested, and the “inhibition of IRT1-mediated Fe(II) uptake in yeast (summary statement)” value (IRT1) was “inhibitors of IRT1-mediated Fe(II) uptake; also recorded: strongly inhibited” and the “effect on the rate of iron uptake by IRT1” value (IRT1) was “potent inhibitors”.
In the case of `[K+]` [K^+], the “inhibition of zinc uptake by the low affinity system” value ([1]; high extracellular K+ (100 mM)) is reported as “not inhibited”.
For `[Cl-].[Cl-].[Mg+2]` [Mg], the “effect on zrt1 growth in LIM” value (zrt1 mutant (ZHY1) cells) was “no effect”, the “effect on zinc uptake by the high affinity system” value ([2]; 20 μM added metal, 2 μM 65Zn, five minutes, zinc-limited wild type) was “unaffected” and the “effect on zinc uptake by the low affinity system” value ([1]; 200 μM added metal, 20 μM 65Zn, five minutes, zrt1 mutant cells) was “did not diminish zinc uptake”.
In the case of `[Cl-].[Cl-].[Sr+2]` [Sr], the “effect on the rate of iron uptake by IRT1” value (IRT1) is reported as “no significant effect”.
In the case of `O=C1O[C@H]([C@@H](O)CO)C([O-])=C1O.[Na+]` [ascorbate, sodium ascorbate, reference compound], the “effect on the rate of zinc uptake” value [2, 3] is reported as “no effect” and the “effect on the rate of zinc uptake” value [1, 3] is reported as “no effect”.
